Each compound was assayed against human SGLT2 (Homo sapiens (Human), UniProt P31639) (assay: hSGLT2 inhibitory activity, sodium-dependent 14C-AMG glucose transport assay in CHO cells expressing hSGLT2). Details: 14C-AMG uptake, CHO cells expressing hSGLT2, 37° C. for 2 h.
Format: cell-based
From the text: Human SGLT2 (hSGLT2) gene was amplified by PCR from cDNA-Human Adult Normal Tissue Kidney (Invitrogen, Carlsbad, Calif.). The hSGLT2 sequence was cloned into pcDNA3.1(+) for mammalian expression and were stably transfected into Chinese hamster ovary (CHO) cells. SGLT2-expressing clones were selected based on resistance to G418 antibiotic (Geneticin®, Invitrogen, Carlsbad, Calif.) and activity in the ^14C-α-methyl-D-glucopyranoside (^14C-AMG) uptake assay.
For sodium-dependent glucose transport assay, cells expressing hSGLT2 were seeded into a 96-well culture plate at a density of 5×10^4 cells/well in RPMI medium 1640 containing 10% fetal bovine serum. The cells were used 1 day after plating. They were incubated in pretreatment buffer (10 mM HEPES, 5 mM Tris, 140 mM choline chloride, 2 mM KCl, 1 mM CaCl2, and 1 mM MgCl2, pH 7.4) at 37° C. for 10 min. They were then incubated in uptake buffer (10 mM HEPES, 5 mM Tris, 140 mM NaCl, 2 mM KCl, 1 mM CaCl2, 1 mM MgCl2, and 1 mM ^14C-nonlabeled AMG pH 7.4) containing ^14C-labeled (8 uM) and inhibitor or dimethyl sulfoxide (DMSO) vehicle at 37° C. for 2 h. Cells were washed twice with washing buffer (pretreatment buffer containing 10 mM AMG at room temperature) and then the radioactivity was measured using a liquid scintillation counter.

human SGLT2, sequence (P31639 whole entry): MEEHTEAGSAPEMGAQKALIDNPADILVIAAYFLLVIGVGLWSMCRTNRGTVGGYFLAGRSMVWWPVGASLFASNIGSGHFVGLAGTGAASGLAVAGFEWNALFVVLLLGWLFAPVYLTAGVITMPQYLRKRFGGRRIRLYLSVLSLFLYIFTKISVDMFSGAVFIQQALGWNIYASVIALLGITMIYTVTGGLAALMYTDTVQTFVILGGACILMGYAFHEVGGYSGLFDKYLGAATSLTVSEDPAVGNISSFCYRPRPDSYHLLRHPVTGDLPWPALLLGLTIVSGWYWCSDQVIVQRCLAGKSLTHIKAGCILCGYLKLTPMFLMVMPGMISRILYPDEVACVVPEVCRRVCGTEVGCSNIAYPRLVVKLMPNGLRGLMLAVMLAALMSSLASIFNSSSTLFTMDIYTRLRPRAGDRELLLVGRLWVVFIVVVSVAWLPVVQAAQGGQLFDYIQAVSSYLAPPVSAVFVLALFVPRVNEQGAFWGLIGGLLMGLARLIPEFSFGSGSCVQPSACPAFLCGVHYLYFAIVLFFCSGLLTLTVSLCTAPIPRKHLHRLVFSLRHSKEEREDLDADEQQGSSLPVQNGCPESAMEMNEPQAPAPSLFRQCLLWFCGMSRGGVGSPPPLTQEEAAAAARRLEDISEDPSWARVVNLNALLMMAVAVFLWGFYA

IC50	Structure (SMILES)
758 nM	OC[C@H]1O[C@@H](c2ccc(Cl)c(Cc3nnc(CC(F)(F)F)s3)c2)[C@H](O)[C@@H](O)[C@@H]1O [Example 39, (2S,3R,4R,5S,6R)-2-(4-Chloro-3-((5-(2,2,2-trifluoroethyl)-1,3,4-thiadiazol-2-yl)methyl)phenyl)-6-(hydroxymethyl)tetrahydro-2H-pyran-3,4,5-triol]
10.9 nM	CSc1nnc(Cc2cc([C@@H]3O[C@H](CO)[C@@H](O)[C@H](O)[C@H]3O)ccc2Cl)s1 [Example 40, (2S,3R,4R,5S,6R)-2-(4-Chloro-3-((5-(methylthio)-1,3,4-thiadiazol-2-yl)methyl)phenyl)-6-(hydroxymethyl)-tetrahydro-2H-pyran-3,4,5-triol]
146 nM	COc1nnc(Cc2cc([C@@H]3O[C@H](CO)[C@@H](O)[C@H](O)[C@H]3O)ccc2Cl)s1 [Example 41, (2S,3R,4R,5S,6R)-2-(4-Chloro-3-((5-methoxy-1,3,4-thiadiazol-2-yl)methyl)phenyl)-6-(hydroxymethyl)-tetrahydro-2H-pyran-3,4,5-triol]
4.06 nM	OC[C@H]1O[C@@H](c2ccc(Cl)c(Cc3nnc(-c4cnccn4)s3)c2)[C@H](O)[C@@H](O)[C@@H]1O [Example 42, (2S,3R,4R,5S,6R)-2-(4-Chloro-3-((5-(pyrazin-2-yl)-1,3,4-thiadiazol-2-yl)methyl)phenyl)-6-(hydroxymethyl)-tetrahydro-2H-pyran-3,4,5-triol]
190 nM	OC[C@H]1O[C@@H](c2ccc(Cl)c(Cc3nnc(-c4ccnnc4)s3)c2)[C@H](O)[C@@H](O)[C@@H]1O [Example 43, (2S,3R,4R,5S,6R)-2-(4-Chloro-3-((5-(pyridazin-4-yl)-1,3,4-thiadiazol-2-yl)methyl)phenyl)-6-(hydroxymethyl)-tetrahydro-2H-pyran-3,4,5-triol]
638 nM	Cc1cccc(-c2nnc(Cc3cc([C@@H]4O[C@H](CO)[C@@H](O)[C@H](O)[C@H]4O)ccc3Cl)s2)n1 [Example 44, (2S,3R,4R,5S,6R)-2-(4-Chloro-3-((5-(6-methylpyridin-2-yl)-1,3,4-thiadiazol-2-yl)methyl)phenyl)-6-(hydroxymethyl)-tetrahydro-2H-pyran-3,4,5-triol]
36.4 nM	Cc1cc(-c2nnc(Cc3cc([C@@H]4O[C@H](CO)[C@@H](O)[C@H](O)[C@H]4O)ccc3Cl)s2)ccn1 [Example 45, (2S,3R,4R,5S,6R)-2-(4-Chloro-3-((5-(2-methylpyridin-4-yl)-1,3,4-thiadiazol-2-yl)methyl)phenyl)-6-(hydroxymethyl)-tetrahydro-2H-pyran-3,4,5-triol]
201 nM	COC(=O)c1ccc(Cc2cc([C@@H]3O[C@H](CO)[C@@H](O)[C@H](O)[C@H]3O)ccc2Cl)nn1 [Example 49, Methyl 6-(2-chloro-5-((2S,3R,4R,5S,6R)-3,4,5-trihydroxy-6-(hydroxymethyl)-tetrahydro-2H-pyran-2-yl)benzyl)pyridazine-3-carboxylate]
17 nM	CCCCCOc1ccc(Cc2cc([C@@H]3O[C@H](CO)[C@@H](O)[C@H](O)[C@H]3O)ccc2Cl)nn1 [Example 54, (2S,3R,4R,5S,6R)-2-(4-Chloro-3-((6-(pentyloxy)pyridazin-3-yl)methyl)phenyl)-6-(hydroxymethyl)-tetrahydro-2H-pyran-3,4,5-triol]
50.5 nM	CCCCCCCCOc1ccc(Cc2cc([C@@H]3O[C@H](CO)[C@@H](O)[C@H](O)[C@H]3O)ccc2Cl)nn1 [Example 56, (2S,3R,4R,5S,6R)-2-(4-Chloro-3-((6-(octyloxy)pyridazin-3-yl)methyl)phenyl)-6-(hydroxymethyl)-tetrahydro-2H-pyran-3,4,5-triol]
111 nM	OC[C@H]1O[C@@H](c2ccc(Cl)c(Cc3ccc(OC4CCCCC4)nn3)c2)[C@H](O)[C@@H](O)[C@@H]1O [Example 59, (2S,3R,4R,5S,6R)-2-(4-Chloro-3-((6-(cyclohexyloxy)pyridazin-3-yl)methyl)phenyl)-6-(hydroxymethyl)-tetrahydro-2H-pyran-3,4,5-triol]

From US8541380B2, “C-aryl glucoside SGLT2 inhibitors and pharmaceutical compositions comprising same” (Green Cross Corporation, priority 2009, dated 2013)
